Here are results for one compound from patent publication US4639433A, “Glycopeptide derivatives” (Eli Lilly and Company, priority 1985, dated 1987).

Assay [1] deals with Haemophilus influenzae C.L. As to conditions: agar dilution. Background: Agar dilution tests growth on a series of plates holding different concentrations.
The subject of assay [2] is Staphylococcus aureus V41. As to conditions: agar dilution.
Assay [3] concerns Staphylococcus epidermidis 222. Particulars: agar dilution.
Assay [4] has as its system Staphylococcus aureus NRRL B313. Particulars: agar dilution.
Assay [5] relates to Streptococcus faecium ATCC 9790. As to conditions: agar dilution.
The next assay deals with Streptococcus pyogenes. The experiment in a line: Experimental bacterial infection in mice, ED50. Particulars: two doses, administered subcutaneously. It is filed as in vivo.
The subject of assay [6] is Haemophilus influenzae 76. Particulars: agar dilution.
The test system of assay [7] is Streptococcus sp. group D 2041. Particulars: agar dilution.
For assay [8], the system named is Streptococcus pyogenes C203. Particulars: agar dilution.
For assay [9], the system named is Staphylococcus aureus X400. As to conditions: agar dilution.
Assay [10] has as its system Klebsiella pneumoniae X68. Particulars: agar dilution.
Assay [11] concerns Staphylococcus aureus S13E. As to conditions: agar dilution.
In another assay the test system is Staphylococcus aureus. The assay can be described thus: Experimental bacterial infection in mice, ED50. The assay is classed as in vivo. Particulars: two doses, administered subcutaneously.
Assay [12] concerns Streptococcus pneumoniae Park 1. Particulars: agar dilution.
Another assay has as its system Escherichia coli EC14. Particulars: agar dilution.
Assay [13] deals with Staphylococcus epidermidis EPI1. Particulars: agar dilution.
A further assay relates to Escherichia coli N10. Particulars: agar dilution.
The subject of a further assay is Streptococcus pneumoniae. The assay can be described thus: Experimental bacterial infection in mice, ED50. It is filed as in vivo. As to conditions: two doses, administered subcutaneously.
The test system of a further assay is Escherichia coli TEM. As to conditions: agar dilution.
The subject of assay [14] is Klebsiella pneumoniae KAE. As to conditions: agar dilution.
Assay [15] concerns Klebsiella pneumoniae X26. Particulars: agar dilution.

Structures are written as SMILES. Converted amounts (≈) assume the structure as drawn.

For the compound `CCCC(=O)NC1(C)CC(OC2C(Oc3c4cc5cc3Oc3ccc(cc3Cl)C(O)C3NC(=O)C(NC(=O)C5NC(=O)C(CC(N)=O)NC(=O)C(NC(=O)C(CC(C)C)NC)C(O)c5ccc(c(Cl)c5)O4)c4ccc(O)c(c4)-c4c(O)cc(O)cc4C(C(=O)O)NC3=O)OC(CO)C(O)C2O)OC(C)C1O` (stereo not drawn) [Compound 1, N^van --(1-oxo-n-butyl)vancomycin], the MIC entry in [1] was “-- (not active at 128 mcg/ml)”; in assay [2] it was 2 µg/mL (≈ 1.32 µM); in assay [3], 4 µg/mL (≈ 2.63 µM); in assay [4], 2 µg/mL (≈ 1.32 µM); in [5], 2 µg/mL (≈ 1.32 µM); in [6], “-- (not active at 128 mcg/ml)”. Also, the MIC is 8 µg/mL (≈ 5.27 µM) in [7]; 1 µg/mL (≈ 0.658 µM) in assay [8]; 2 µg/mL (≈ 1.32 µM) in assay [9]; “-- (not active at 128 mcg/ml)” in [10]; 2 µg/mL (≈ 1.32 µM) in assay [11]; 1 µg/mL (≈ 0.658 µM) in [12]. Moreover, the MIC entry against Escherichia coli EC14 is “-- (not active at 128 mcg/ml)”; in assay [13], 8 µg/mL (≈ 5.27 µM); in the assay with Escherichia coli N10, “-- (not active at 128 mcg/ml)”; with Escherichia coli TEM it was “-- (not active at 128 mcg/ml)”; in assay [14] it was “-- (not active at 128 mcg/ml)”; in assay [15] it was “-- (not active at 128 mcg/ml)”. Further, the ED50 in the assay on Streptococcus pyogenes is 5.5 mg/kg/2; in the assay on Staphylococcus aureus, 6.3 mg/kg/2; in the assay on Streptococcus pneumoniae it was 3.6 mg/kg/2.
